The source of these data is patent publication US4946842A, “Novel guanidino pyridazinones as cardiac stimulants” (Smith Kline & French Laboratories Limited, priority 1985, dated 1990).

In one test the test system is PDE (Peak III). The experiment in a line: Inhibition of PDE (Peak III). As to conditions: read-out: IC50 (PDE Peak III); 1 μM cyclic AMP.
Test [1] has as its system left ventricular dp/dt max. The test is described as follows: Cardiac stimulant activity in vivo (anaesthetised cats): left ventricular dp/dt max. Details: species or system cat. As to conditions: Felis catus, iv, read-out: ED50 (dose to increase left ventricular dp/dt max by 50%), i.v., pretreated with ganglion blocker and propranolol.
Excerpt: Cardiac Stimulant Activity--In vivo (Anaesthetised Cats)
# Relative duration was estimated in the anaesthetised cats following the
The test system of the next test is ventricular strips. The experiment in a line: Cardiac stimulant activity in vitro: force of contraction of electrically stimulated ventricular strips. Particulars: Cavia porcellus, read-out: EC50 (50% increase in the force of contraction of the ventricular strips); guinea pig ventricular strips, 37° C., 1.0 Hz, cumulative concentration response. It counts as cell-based. The protocol: The compounds of formula (I) and their pharmaceutically acceptable salts are tested for cardiac stimulant activity following a procedure based on that of S. C. Verma and J. H. McNeill (J.Pharm & Exp. Therapeutics, 200, 352-362 (1977)). Guinea pigs (500-700 g) of either sex are sacrificed and the hearts are quickly removed and transferred to a dissecting dish containing oxygenated bathing fluid. While in the bathing medium, the right ventricle is cut into two strips. The strips are each suspended in a 50 ml bath containing Krebs Henseleit solution at 37° C., and the bath is bubbled with 95% oxygen and 5% carbon dioxide. The ventricular strips are electrically stimulated at a frequency of 1.0 Hz, at double the threshold voltage. A resting tension of 1.0 g is applied to the strips and the tension is kept constant by readjustment during an equilibration period of 60 minutes. The bathing fluid is frequently changed during this period. When a steady base line is obtained, a compound under test is added to the bathing fluid and a cumulative concentration response curve is plotted. The compounds for use in the present invention which were tested gave a 50% increase in the force of contraction of the ventricular strips at concentrations in the bathing fluid of less than 10^-4 molar, thus showing that they have activity as positive inotropic agents.

The test system of another test is PDE (Peak I). The test is described as follows: Substrate kinetics of PDE (Peak I). Particulars: for Relative Vmax: PDE (Peak I), eluted at 0.15 M Na acetate. It counts as biochemical, cat.
A further test deals with PDE (Peak II). Particulars: in words.

Description for PDE (Peak II): (§1) The enzyme was assayed by incubation at 37° for 4-30 min in 50 mM Tris, 5 mM MgCl2, pH 7.5 with [3-H] cyclic nucleotide (4×10^5 disintegrations min^-1) and [14-C] nucleotide 5' monophosphate (3×10^3 disintegrations min^-1). The assay was stopped by boiling, and the [3-H] […] The reaction mixture was diluted with 0.5 ml 100 mM HEPES (N-2-Hydroxyethylpiperazine-N'-2-ethanesulfonic acid), 100 mM NaCl, pH 8.5, and applied to the column. […] The recovery of product as judged by [14-C] recovery was approximately 80%. All assays were linear with time of incubation and concentration of enzyme over the range used in these experiments.
Description for PDE (Peak III): as §1

As for `CC(=O)N=C(N)Nc1ccc(C2=NNC(=O)CC2C)cc1` (stereo not shown) [Example 1, 6-[4-(N^2-acetylguanidino)phenyl]-5-methyl-4,5-dihydro-3(2H)-pyridazinone], the concentration for half-maximal inhibition (IC50) (in general, the midpoint of a concentration-inhibition curve) in the test with PDE (Peak III) amounted to 2.23 µM. Also, the ED50 in test [1] worked out at 0.5 µmol/kg. Also, the EC50 with ventricular strips was 16 µM.

`CNC(=NS(C)(=O)=O)Nc1ccc(C2=NNC(=O)CC2C)cc1` (stereo not shown) [Example 2, 6-[4-(N^3-methyl-N^2-methylsulphonylguanidino)phenyl]-5-methyl-4,5-dihydro-3(2H)-pyridazinone]: the IC50 in the test with PDE (Peak III) worked out at 2.48 µM. Besides, in test [1], the ED50 came out at 0.2 µmol/kg.

In the case of `CNC(=NS(=O)(=O)c1ccccc1)Nc1ccc(C2=NNC(=O)CC2C)cc1` (stereo not shown) [Example 3, 6-[4-(N^ 3-methyl-N^2-phenylsulphonylguanidino)phenyl]-5-methyl-4,5-dihydro-3(2H)-pyridazinone], the IC50 with PDE (Peak III) is 0.23 µM. Besides, in test [1], the ED50 amounted to 0.1 µmol/kg.

On to `COCCNC(=NC#N)Nc1ccc(C2=NNC(=O)CC2C)cc1` (stereo not shown) [Example 4, 6-[4-(N^3-(2-Methoxyethyl)-N^2-cyanoguanidino)phenyl]-5-methyl-4,5-dihydro-3(2H)-pyridazinone], for which, in test [1], the ED50 is 0.2 µmol/kg. In the test on ventricular strips, the EC50 stood at 2.8 µM.

In the case of `CC1CC(=O)NN=C1c1ccc(NC(=NC#N)NCCO)cc1` (stereo not shown) [Example 5, 6-[4-(N^3-(2-Hydroxyethyl)-N^2-cyanoguanidino)phenyl]-5-methyl-4,5-dihydro-3(2H)-pyridazinone], the ED50 in test [1] came out at 0.7 µmol/kg. Also, the EC50 with ventricular strips worked out at 8 µM.

Regarding `CC1CC(=O)NN=C1c1ccc(NC(=NC#N)NC2CC2)cc1` (stereo not shown) [Example 6], in test [1], the ED50 was found to be 0.4 µmol/kg. Further, the EC50 in the test on ventricular strips turned out to be 10 µM.

Take `C=CCNC(=NC#N)Nc1ccc(C2=NNC(=O)CC2C)cc1` (stereo not shown) [Example 7, 6-[4-(N^3 -Allyl-N^2-cyanoguanidino)phenyl]-5-methyl-4,5-dihydro-3(2H)-pyridazinone]: the ED50 in test [1] was found to be 0.3 µmol/kg. In addition, in the test with ventricular strips, the EC50 amounted to 10 µM.

Consider `C#CCNC(=NC#N)Nc1ccc(C2=NNC(=O)CC2C)cc1` (stereo not shown) [Example 8, 6-[4-(N^3 -Propargyl-N^2-cyanoguanidino)phenyl]-5-methyl-4,5-dihydro-3(2H)-pyridazinone], for which, in test [1], the ED50 amounted to 0.4 µmol/kg. Further, in the test with ventricular strips, the EC50 is 18 µM.

As for `CC1CC(=O)NN=C1c1ccc(NC(=NC#N)NCc2ccc(O)cc2)cc1` (stereo not shown) [Example 9, 6-[4-(N^3-(4-Hydroxybenzyl)-N^2-cyanoguanidino)phenyl]-5-methyl-4,5-dihydro-3(2H)-pyridazinone], the IC50 in the test on PDE (Peak III) stood at 0.08 µM. In test [1], the ED50 is 0.4 µmol/kg.

Turning to `CC1CC(=O)NN=C1c1ccc(NC(=NC#N)NCc2ccccc2)cc1` (stereo not shown) [Example 10, 6-[4-(N^3 -Benzyl-N^2-cyanoguanidino)phenyl]-5-methyl-4,5-dihydro-3(2H)-pyridazinone], the ED50 in test [1] was 0.1 µmol/kg. The EC50 in the test with ventricular strips is 0.8 µM.

As for `COc1ccc(CNC(=NC#N)Nc2ccc(C3=NNC(=O)CC3C)cc2)cc1` (stereo not shown) [Example 11, 6-[4-(N^3-(4-Methoxybenzyl)-N^2-cyanoguanidino)phenyl]-5-methyl-4,5-dihydro-3(2H)-pyridazinone], in test [1], the ED50 turned out to be 0.5 µmol/kg.

On to `CC1CC(=O)NN=C1c1ccc(NC(=NC#N)NCc2ccccn2)cc1` (stereo not shown) [Example 12, 6-[4-(N^3-(2-Pyridylmethyl)-N^2-cyanoguanidino)phenyl]-5-methyl-4,5-dihydro-3(2H)-pyridazinone], for which the EC50 in the test with ventricular strips amounted to 12 µM.

`CC1CC(=O)NN=C1c1ccc(NC(=NC#N)NCCc2ccccc2)cc1` (stereo not shown) [Example 13, 6-[4-(N^3 -Phenethyl-N^2-cyanoguanidino)phenyl]-5-methyl-4,5-dihydro-3(2H)-pyridazinone]: in the test on ventricular strips, the EC50 was 12.5 µM.

For the compound `Nc1nc2c(ncn2[C@@H]2O[C@@H]3COP(=O)(O)O[C@H]3[C@H]2O)c(=O)[nH]1` [cyclic GMP], the figures for the “Relative Vmax” value in the test with PDE (Peak I) (50 μg/ml calmodulin added) and in the test on PDE (Peak I) (without calmodulin) were 7.2 and 1.1, respectively. Moreover, in the test with PDE (Peak I) (in words), the “affinity of PDE (Peak I)” value was “high affinity”. Moreover, the “affinity of PDE (Peak II)” value with PDE (Peak II) was “relatively low affinities”.
